Test results as given in patent publication US6376540B1, “Furan nitrone compounds” (Centaur Pharmaceuticals, Inc., priority 1996, dated 2002).

Key:
female Lewis rats = test: MBP-induced experimental allergic encephalomyelitis (EAE), behavioral score; assay type: in vivo, rat; details: 100 mg/kg po once a day from days 4 to 18
Method: Experimental allergic encephalomyelitis (EAE) induced by injection of myelin basic protein (MBP) or MBP peptide fragments is reported to be a useful model for MS. See, for example, D. E. McFarlin et al., “Recurrent Experimental Allergic Encephalomyelitis in the Lewis Rat,” The Journal of Immunology, 113(2): 712-715 (1974).
Acclimated female Lewis rats, (Harlan; 200-250 g) were used in this experiment since this strain of rat is genetically highly susceptible to EAE. In the experiment, 100 mg/kg of N-isopropyl-α-(2-sulfofuran-5-yl)nitrone sodium salt (prepared in Example 1 above) or a vehicle alone (control) was administered po once a day from days 4 to 18. On day 1, the rats received an injection of 100 μg of MBP peptide, from guinea pig brain, plus 500 μg of H37RA Mycobacterium in 0.10 ml complete Freund's adjuvant divided equally between the two hind foot-pads.
The rats were evaluated on a 0-6 scale every day after day 7 until day 18 (effects usually begin day 10 and peak day 15). See E. Heber-Katz, “The Ups and Downs of EAE,” International Reviews Immunology, 9: 277-285 (1992). […] Results are expressed as a behavioral score ranging from 0 to 6.

Fas^1pr mutation mice = test: Learning deficit in autoimmune mice, active avoidance T-maze; assay type: in vivo
Method: Male MRL/MpJ controls and Fas^1pr mutation mice were either dosed orally with 1% methylcellulose (“MC”) or with 100 mg/kg of N-isopropyl-α-(2-sulfofuran-5-yl)nitrone sodium salt (prepared in Example 1 above)(“test compound”) in 1% methylcellulose for 9-10 weeks. Following dosing, animals of approximately 4 months of age were tested in an active avoidance T-maze. In the one day test, animals were analyzed for acquisition to avoid shock within the first five trials of the test.

[1] = Free radical trapping, DCF oxidation, ferrous iron system; assay type: biochemical; details: 100 μM test compound, 100 μM FeSO4, 50 μM DCF in MEM, 37° C., 2 hrs
Method: (§1) Dichlorofluorescein (DCF) is a compound that fluoresces when oxidized by reactive oxygen species (ROS), such as hydroxyl, peroxyl, or alkoxyl free radicals. Test compounds were evaluated for their ability to scavenge radicals by determining their capacity to prevent the DCF oxidation in a radical generating environment. Two radical generating systems were used: (i) ferrous iron and (ii) tert-butyl hydroperoxide. When ferrous iron is placed in normoxic solution, it autooxidizes to produce ROS in the form of hydroxyl radicals, superoxide anion free radicals, and hydrogen peroxide. Similarly, when tert-butyl hydroperoxide is placed in non-chelated media, trace metals catalyze its oxidation to yield alkoxy, peroxyl, and alkyl free radicals.
(§2) In this assay, either 100 μM FeSO4 or 25 μM tert-butyl hydroperoxide were mixed with 50 μM DCF and 100 μM of the test compound in MEM and the mixture was incubated at 37° C. for 2 hrs. The fluorescence wavelengths measured were 485 nm for excitation and 530 nm for emission. In these tests, N-isopropyl-α-(2-sulfofuran-5-yl)nitrone sodium salt (prepared in Example 1 above) reduced fluorescence by 20% in the Fe^+2 assay and by 13% in the tert-butyl hydroperoxide assay. In comparison, a known free radical trap, N-tert-butyl-α-phenylnitrone (PBN) reduced fluorescence by 48% in the Fe^+2 assay and by 9% in the tert-butyl hydroperoxide assay.

[2] = system: primary neuronal/astrocyte cultures; test: Protection against Aβ(1-40)-induced neuronal cell loss; assay type: cell-based, Sprague Dawley rat; details: similar manner using Aβ(1-40) instead of Aβ(25-35)
Method: Patients with Alzheimer's disease are known to suffer a progressive loss of neuronal cells. See, for example, P. J. Whitehause et al., (1982) Science, 215:1237-1239. […] Sprague Dawley rat hippocampus of 18-day-gestation embryos was excised and then dissociated by trituration to prepare primary neuronal/astrocyte cultures. Cells (3×10^5) were plated on 35 mm poly-D-lysine-coated plates containing Eagle's minimum essential medium supplemented with 10% fetal bovine serum. After 3-5 hours, the original medium was removed and replaced with 1 mL of fresh medium. Cultures were maintained at 37° C. in a 5% CO2/95% air humidified incubator.
To the cells (7 DIV) was added 30 μM of Aβ(25-35) dissolved in dH2O (stored at −20° C.) and 100 μM of the test compound (i.e., a compound of Example 1, 3, 4, 5, 6, 7, 8, 12 or 13 above) in 1% methylcellulose. Controls were also conducted without the test compound. The percentage of morphologically viable neurons was determined counting the number of viable neurons after 96 hours treatment compared to the number of neurons before treatment in the same premarked culture regions (three regions/culture, n=6).
In experiments conducted in a similar manner using Aβ(1-40) instead of Aβ(25-35), the compound prepared in Example 1 above reduced Aβ(1-40)-induced neuronal cell loss by 46% compared to the controls.

[3] = system: rat permanent middle cerebral artery occlusion (MCAO) model; test: Rat permanent middle cerebral artery occlusion (MCAO) stroke model; assay type: in vivo
Method: A rat permanent middle cerebral artery occlusion (MCAO) model was used to determine stroke treatment efficacy. MCAO is a representative model of acute CNS disorders. See, for example, M. D. Ginsberg et al., “Rodent Models of Cerebral Ischemia” (1989) Stroke, 20:1627-1642. In this stroke model, the middle cerebral artery was permanently occluded via cauterization to produce a focal stroke. N-isopropyl-α-(2-sulfofuran-5-yl)nitrone, sodium salt (prepared in Example 1 above) was then administered as a 10 mg/kg i.v. bolus dose three hours post MCAO through a catheter surgically implanted in the jugular vein. Two days post MCAO, the rats were sacrificed and the extent of brain damage assessed using tetrazolium staining (TTC staining) followed by computer image analysis to quantitate infarct volumes, i.e., the regions of dead tissue. The mean infarct volume for rats treated with the test compound was 24.7 mm^3 whereas the mean infarct volume for rats not treated with the test compound was 36.0 mm^3. […] Thus, N-isopropyl-α-(2-sulfofuran-5-yl)nitrone, sodium salt reduced the mean infarct volume of a stroke by 32% when administered three hours post stroke compared to controls.

[4] = Free radical trapping, DCF oxidation, tert-butyl hydroperoxide system; assay type: biochemical; details: 100 μM test compound, 25 μM tert-butyl hydroperoxide, 50 μM DCF in MEM, 37° C., 2 hrs
Method: as §1, §2

CC(C)[N+]([O-])=Cc1ccc(S(=O)(=O)O)o1 [Example 1, N-Isopropyl-α-(2-sulfofuran-5-yl)nitrone]
effect of MBP on behavioral score (0-6 scale) (female Lewis rats): completely counteracted the effect of MBP
protection in acquisition learning deficit compared to Fas mutated animals receiving only 1% methylcellulose (Fas^1pr mutation mice; 100 mg/kg orally for 9-10 weeks, two experiments combined (n=14-15)): 50%
Mean Acquisition Values (Maximum score of 5.0) (Fas^1pr mutation mice; Fas^1pr mice, 100 mg/kg orally in 1% methylcellulose for 9-10 weeks, first five trials): Mean = 1.467
reduced fluorescence in the Fe^+2 assay [1]: 20%
reduction of Aβ(1-40)-induced neuronal cell loss compared to the controls [2]: 46%
mean infarct volume ([3]; 10 mg/kg i.v. bolus three hours post MCAO, two days post MCAO, TTC staining): 24.7 mm^3
reduction of mean infarct volume compared to controls ([3]; 10 mg/kg i.v. bolus three hours post stroke): 32%
reduced fluorescence in the tert-butyl hydroperoxide assay [4]: 13%
